Assay results: ChEMBL document CHEMBL1201862, “PubChem BioAssay data set” (2004)
Counter-ions that a name gives are not always drawn. Activity calls are given as the source filed them.

What was measured:
[1] = molecular target: T1, Tyrosine-protein phosphatase non-receptor type 22 (Homo sapiens, UniProt Q9Y2R2); experiment: SAR LYP1 Fluorescent Assay using OMFP substrate for In Vitro dose response studies - Set 3. [Related pubchem assays (depositor defined):AID1779, AID1784, AID2140, AID2686]; format: functional
T1 sequence (Q9Y2R2 whole entry): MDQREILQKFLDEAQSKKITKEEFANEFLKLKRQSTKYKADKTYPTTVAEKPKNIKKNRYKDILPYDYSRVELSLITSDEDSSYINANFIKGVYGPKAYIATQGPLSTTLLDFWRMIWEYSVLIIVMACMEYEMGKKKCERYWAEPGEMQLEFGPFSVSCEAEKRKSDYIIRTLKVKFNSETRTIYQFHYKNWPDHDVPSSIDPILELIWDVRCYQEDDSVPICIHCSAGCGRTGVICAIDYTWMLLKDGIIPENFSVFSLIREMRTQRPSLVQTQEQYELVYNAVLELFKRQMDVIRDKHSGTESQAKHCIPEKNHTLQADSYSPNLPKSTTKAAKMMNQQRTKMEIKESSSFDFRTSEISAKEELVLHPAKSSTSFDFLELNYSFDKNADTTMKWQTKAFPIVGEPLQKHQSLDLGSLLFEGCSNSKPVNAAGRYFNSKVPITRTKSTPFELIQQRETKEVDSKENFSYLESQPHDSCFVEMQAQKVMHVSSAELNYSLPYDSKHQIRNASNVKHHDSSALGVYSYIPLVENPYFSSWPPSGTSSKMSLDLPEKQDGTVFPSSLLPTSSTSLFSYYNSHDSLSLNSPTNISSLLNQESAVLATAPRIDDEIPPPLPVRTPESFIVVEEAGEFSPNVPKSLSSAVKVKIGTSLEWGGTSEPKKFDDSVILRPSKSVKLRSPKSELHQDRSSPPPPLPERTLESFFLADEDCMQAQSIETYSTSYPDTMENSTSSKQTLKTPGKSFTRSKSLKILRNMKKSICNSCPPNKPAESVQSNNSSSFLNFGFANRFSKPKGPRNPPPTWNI

[2] = molecular target: T2, Tyrosine-protein phosphatase non-receptor type 12 (Homo sapiens, UniProt Q05209); experiment: SAR Selectivity Analysis of small molecule inhibitors of PEST using pCAP in a fluorescence assay. [Related pubchem assays (depositor defined):AID1779, AID1784, AID2135]; format: functional
T2 sequence (Q05209 whole entry): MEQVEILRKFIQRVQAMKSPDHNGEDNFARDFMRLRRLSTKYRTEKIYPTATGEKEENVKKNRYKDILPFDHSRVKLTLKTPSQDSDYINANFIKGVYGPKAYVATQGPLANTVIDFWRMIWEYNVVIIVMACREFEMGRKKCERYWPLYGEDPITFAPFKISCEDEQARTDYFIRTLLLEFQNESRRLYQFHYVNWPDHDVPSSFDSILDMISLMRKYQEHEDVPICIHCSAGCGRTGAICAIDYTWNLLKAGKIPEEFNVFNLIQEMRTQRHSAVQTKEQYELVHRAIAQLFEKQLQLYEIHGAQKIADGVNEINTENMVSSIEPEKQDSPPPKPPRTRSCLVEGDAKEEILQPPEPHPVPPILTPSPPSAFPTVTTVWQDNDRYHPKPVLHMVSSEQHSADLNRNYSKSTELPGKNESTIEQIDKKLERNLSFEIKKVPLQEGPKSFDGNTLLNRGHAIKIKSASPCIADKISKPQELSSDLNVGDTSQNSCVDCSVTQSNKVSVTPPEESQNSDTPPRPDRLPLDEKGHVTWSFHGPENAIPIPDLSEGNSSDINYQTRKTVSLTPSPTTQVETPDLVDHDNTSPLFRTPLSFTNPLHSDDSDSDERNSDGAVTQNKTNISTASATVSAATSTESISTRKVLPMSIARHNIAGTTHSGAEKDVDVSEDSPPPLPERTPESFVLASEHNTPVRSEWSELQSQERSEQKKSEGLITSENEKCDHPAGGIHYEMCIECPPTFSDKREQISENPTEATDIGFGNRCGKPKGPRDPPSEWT

[3] = molecular target: Glyceraldehyde-3-phosphate dehydrogenase (Homo sapiens, UniProt P04406)
Chain of Glyceraldehyde-3-phosphate dehydrogenase (P04406 whole entry): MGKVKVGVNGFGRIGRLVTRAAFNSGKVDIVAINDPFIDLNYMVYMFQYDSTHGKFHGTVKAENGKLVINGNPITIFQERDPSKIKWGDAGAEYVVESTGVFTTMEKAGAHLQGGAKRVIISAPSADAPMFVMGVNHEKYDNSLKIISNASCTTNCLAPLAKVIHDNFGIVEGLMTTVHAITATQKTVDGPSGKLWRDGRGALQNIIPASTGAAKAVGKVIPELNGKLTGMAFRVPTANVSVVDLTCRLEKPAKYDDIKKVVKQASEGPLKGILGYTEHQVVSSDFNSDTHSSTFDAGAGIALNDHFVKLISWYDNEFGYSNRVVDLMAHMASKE

[4] = molecular target: T1, Tyrosine-protein phosphatase non-receptor type 22; experiment: LYP (PTPN22) phosphatase inhibitor potency, SAR follow-up, biochemical, pCAP fluorogenic substrate, fluorescence, set 3 (AID 449727); format: functional
[5] = molecular target: Heat shock protein HSP 90-alpha (Homo sapiens, UniProt P07900); experiment: Luminescence-based dose response biochemical high throughput screening assay for inhibitors of the Heat Shock Protein 90 (HSP90). [Related pubchem assays: 1831 (Summary AID.), 1846 (Confirmation screen.), 1789 (Primary screen.)]
[6] = molecular target: Peroxisome proliferator-activated receptor gamma/Nuclear receptor coactivator 3 (Homo sapiens, UniProt P37231); format: functional;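 also: agonist potency for raising coactivator recruitment to the receptor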
Chain of Peroxisome proliferator-activated receptor gamma/Nuclear receptor coactivator 3 (P37231 whole entry): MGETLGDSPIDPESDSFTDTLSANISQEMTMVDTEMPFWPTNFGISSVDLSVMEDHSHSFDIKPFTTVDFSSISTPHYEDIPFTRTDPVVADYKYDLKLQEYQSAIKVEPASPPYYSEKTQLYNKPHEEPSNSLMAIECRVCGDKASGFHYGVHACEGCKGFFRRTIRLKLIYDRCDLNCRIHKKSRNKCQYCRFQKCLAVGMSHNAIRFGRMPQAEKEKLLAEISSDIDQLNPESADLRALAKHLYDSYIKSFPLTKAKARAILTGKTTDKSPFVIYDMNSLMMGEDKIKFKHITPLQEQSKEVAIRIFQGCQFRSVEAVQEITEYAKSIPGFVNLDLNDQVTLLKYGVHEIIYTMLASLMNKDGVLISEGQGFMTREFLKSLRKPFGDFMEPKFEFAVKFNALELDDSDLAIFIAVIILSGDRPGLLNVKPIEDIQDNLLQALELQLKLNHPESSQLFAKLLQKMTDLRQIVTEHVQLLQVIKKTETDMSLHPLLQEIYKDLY
Chain of Peroxisome proliferator-activated receptor gamma/Nuclear receptor coactivator 3 (Q9Y6Q9 whole entry, further chain): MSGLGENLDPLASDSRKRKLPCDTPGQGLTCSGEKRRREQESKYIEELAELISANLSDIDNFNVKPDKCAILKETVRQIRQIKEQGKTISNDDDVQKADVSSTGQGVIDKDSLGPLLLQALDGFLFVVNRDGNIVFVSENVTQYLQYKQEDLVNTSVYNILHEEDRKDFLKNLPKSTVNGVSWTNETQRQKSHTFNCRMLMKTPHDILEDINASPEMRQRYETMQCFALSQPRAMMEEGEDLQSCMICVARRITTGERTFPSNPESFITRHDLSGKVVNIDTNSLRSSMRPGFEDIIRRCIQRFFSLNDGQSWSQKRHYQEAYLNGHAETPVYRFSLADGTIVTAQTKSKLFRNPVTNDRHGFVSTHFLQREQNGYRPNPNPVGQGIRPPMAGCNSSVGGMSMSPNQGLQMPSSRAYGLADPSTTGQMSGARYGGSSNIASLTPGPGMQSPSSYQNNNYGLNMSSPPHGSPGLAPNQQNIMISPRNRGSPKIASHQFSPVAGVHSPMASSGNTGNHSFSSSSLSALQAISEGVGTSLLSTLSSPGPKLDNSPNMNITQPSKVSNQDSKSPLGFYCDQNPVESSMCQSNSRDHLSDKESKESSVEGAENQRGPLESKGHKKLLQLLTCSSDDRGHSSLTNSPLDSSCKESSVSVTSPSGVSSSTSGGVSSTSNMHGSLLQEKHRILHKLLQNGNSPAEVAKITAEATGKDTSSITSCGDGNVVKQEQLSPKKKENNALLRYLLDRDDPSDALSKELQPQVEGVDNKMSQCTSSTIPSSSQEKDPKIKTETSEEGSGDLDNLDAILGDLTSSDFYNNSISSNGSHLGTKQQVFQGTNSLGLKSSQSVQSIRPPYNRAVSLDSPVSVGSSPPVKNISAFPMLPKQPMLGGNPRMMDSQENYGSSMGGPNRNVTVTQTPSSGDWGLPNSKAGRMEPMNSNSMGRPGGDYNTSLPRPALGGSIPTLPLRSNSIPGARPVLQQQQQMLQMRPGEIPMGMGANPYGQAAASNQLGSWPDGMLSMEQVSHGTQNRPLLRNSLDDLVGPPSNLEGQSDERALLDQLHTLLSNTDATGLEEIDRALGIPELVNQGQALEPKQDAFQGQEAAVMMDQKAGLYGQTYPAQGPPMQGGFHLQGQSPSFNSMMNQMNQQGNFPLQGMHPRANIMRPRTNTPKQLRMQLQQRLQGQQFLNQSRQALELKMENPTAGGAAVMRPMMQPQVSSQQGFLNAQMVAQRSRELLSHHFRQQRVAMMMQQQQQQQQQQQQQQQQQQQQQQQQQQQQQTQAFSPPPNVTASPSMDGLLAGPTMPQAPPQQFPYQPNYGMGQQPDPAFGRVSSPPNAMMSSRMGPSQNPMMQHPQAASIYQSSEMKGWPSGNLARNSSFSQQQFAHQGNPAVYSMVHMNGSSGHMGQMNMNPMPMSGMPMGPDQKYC

[7] = molecular target: Peroxisome proliferator-activated receptor gamma/Nuclear receptor coactivator 1 (Homo sapiens, UniProt P37231); format: functional;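 also: agonist potency as compounds enhance coactivator SRC-1 recruitment to PPARgamma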
[8] = molecular target: Peroxisome proliferator-activated receptor gamma/Nuclear receptor coactivator 2 (Homo sapiens, UniProt P37231); format: functional;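 also: agonist potency for raising coactivator recruitment to the receptor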
Chain of Peroxisome proliferator-activated receptor gamma/Nuclear receptor coactivator 2 (P37231 whole entry): as the sequence (P37231 whole entry) above
Chain of Peroxisome proliferator-activated receptor gamma/Nuclear receptor coactivator 2 (Q15596 whole entry, further chain): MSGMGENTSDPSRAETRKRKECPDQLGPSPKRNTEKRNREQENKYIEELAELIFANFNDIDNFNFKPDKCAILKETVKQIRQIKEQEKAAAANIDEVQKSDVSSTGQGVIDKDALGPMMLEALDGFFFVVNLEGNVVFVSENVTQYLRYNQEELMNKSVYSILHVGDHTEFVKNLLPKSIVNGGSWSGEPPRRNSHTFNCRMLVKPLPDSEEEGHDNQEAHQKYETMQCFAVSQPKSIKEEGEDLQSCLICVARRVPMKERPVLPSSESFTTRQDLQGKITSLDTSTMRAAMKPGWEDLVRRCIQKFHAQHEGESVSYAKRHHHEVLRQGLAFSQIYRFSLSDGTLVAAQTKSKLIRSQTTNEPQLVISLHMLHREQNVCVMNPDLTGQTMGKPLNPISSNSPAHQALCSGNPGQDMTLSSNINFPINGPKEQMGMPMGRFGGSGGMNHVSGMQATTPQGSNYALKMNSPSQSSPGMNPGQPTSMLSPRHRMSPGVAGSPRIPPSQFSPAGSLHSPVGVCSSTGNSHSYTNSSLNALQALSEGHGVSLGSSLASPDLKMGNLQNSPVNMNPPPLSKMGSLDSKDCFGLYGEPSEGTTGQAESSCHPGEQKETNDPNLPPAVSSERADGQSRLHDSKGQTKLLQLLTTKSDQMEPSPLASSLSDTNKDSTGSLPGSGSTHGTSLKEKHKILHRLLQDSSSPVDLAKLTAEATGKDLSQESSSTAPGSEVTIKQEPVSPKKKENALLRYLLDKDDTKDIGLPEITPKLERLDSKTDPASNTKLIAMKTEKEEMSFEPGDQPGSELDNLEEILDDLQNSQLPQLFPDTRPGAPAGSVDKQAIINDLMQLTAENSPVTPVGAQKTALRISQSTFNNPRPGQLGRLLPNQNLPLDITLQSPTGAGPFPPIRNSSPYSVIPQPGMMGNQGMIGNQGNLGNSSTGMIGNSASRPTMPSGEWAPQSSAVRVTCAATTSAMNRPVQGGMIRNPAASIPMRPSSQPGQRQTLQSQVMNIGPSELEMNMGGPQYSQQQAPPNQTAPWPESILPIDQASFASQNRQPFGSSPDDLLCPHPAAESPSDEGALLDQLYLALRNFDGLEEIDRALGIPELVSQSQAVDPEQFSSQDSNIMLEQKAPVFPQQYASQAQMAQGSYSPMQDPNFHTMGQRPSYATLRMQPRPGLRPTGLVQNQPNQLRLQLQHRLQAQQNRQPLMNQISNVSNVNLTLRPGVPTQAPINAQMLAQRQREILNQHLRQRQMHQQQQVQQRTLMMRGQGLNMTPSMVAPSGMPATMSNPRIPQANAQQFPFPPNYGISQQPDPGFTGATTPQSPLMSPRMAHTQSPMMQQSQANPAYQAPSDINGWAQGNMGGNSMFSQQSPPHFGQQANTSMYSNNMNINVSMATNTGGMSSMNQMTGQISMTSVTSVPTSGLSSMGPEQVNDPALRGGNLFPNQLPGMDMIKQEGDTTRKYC

[9] = cytotoxicity in HPDE-C7 cells, cell-based, fluorescence, HTS (AID 430); format: functional; settings: Homo sapiens
[10] = cytotoxicity in KRAS-transformed pancreatic duct cells, primary screen, cell-based, fluorescence, HTS (AID 431); format: functional; settings: Homo sapiens;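 also: cell line used: HPDE-C7K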
[11] = molecular target: T3, Heat shock factor protein 1 (Mus musculus, UniProt P38532); experiment: inhibition of MG132-induced HSE-luciferase signal, confirmation, cell-based, NIH3T3, luminescence, dose retest (AID 2382); format: functional;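 also: NIH3T3 fibroblasts with HSF1-driven luciferase reporter stressed by proteasome inhibitor MG132; luminescence from HSF1-driven luciferase expression after 8 hours of MG132 stress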
T3 sequence (P38532 whole entry): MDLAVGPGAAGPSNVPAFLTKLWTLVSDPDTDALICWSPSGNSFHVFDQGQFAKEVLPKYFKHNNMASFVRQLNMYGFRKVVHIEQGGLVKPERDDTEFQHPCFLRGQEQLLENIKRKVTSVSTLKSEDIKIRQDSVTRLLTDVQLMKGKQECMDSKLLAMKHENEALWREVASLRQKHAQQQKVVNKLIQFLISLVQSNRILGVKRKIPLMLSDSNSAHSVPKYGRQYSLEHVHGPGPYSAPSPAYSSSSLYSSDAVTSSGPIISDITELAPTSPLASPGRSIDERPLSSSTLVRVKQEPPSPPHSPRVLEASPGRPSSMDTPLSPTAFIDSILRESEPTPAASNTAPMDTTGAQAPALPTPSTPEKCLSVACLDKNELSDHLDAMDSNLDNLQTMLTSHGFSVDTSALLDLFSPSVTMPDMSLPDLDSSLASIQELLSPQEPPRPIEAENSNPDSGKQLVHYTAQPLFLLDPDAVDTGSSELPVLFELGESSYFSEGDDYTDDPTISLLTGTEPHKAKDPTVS

[12] = Luminescence Cell-Based Dose Confirmation to Identify Activators of 5'UTR Stem-Loop Driven Alpha-Synuclein mRNA Translation in H4 Neuroglioblastoma Cells. [Related pubchem assays: 1829 (Project Summary), 1814 (Primary HTS)]; format: functional
[13] = Luminescence Cell-Based Dose Response to Identify Activators of 5'UTR Stem-Loop Driven Prion Protein mRNA Translation in H4-C Neuroglioblastoma Cells. [Related pubchem assays: 1829 (Project Summary), 1814 (Primary HTS)]; format: functional
H4 = experiment: Luminescence Cell-Based Dose Response HTS to Identify Activators of 5'UTR Stem-Loop Driven Prion Protein mRNA Translation in H4 Neuroglioblastoma Cells. [Related pubchem assays: 1829 (Project Summary), 1814 (Primary HTS)]; format: functional; settings: Homo sapiens
[14] = Luminescence Cell-Based Dose Response HTS to Identify Activators of Luciferase Translation or Activity in H4 […] Cells. [Related pubchem assays: 1829 (Project Summary), 1814 (Primary HTS)]; format: functional
[15] = Luminescence Cell-Based Dose Response to Identify Activators of Luciferase Translation or Activity in H4-C Neuroglioblastoma Cells. [Related pubchem assays: 1829 (Project Summary), 1814 (Primary HTS)]; format: functional
[16] = Luminescence Cell-Based Dose Confirmation HTS to Identify Activators of 5'UTR Stem-Loop Driven Alpha-Synuclein mRNA Translation in H4 Neuroglioblastoma Cells. [Related pubchem assays: 1829 (Project Summary), 1814 (Primary HTS)]; format: functional
[17] = P. falciparum Dd2 growth inhibitors, dose response, SYBR Green, dry powder samples, set 9 (AID 1159568); format: functional, cell-based
[18] = P. falciparum Dd2 growth inhibitors, dose response, SYBR Green, cherry-picked samples (AID 1159567); format: functional, cell-based
[19] = P. falciparum Dd2 growth inhibitors, dose response, SYBR Green, dry powder samples (AID 1159566); format: functional, cell-based;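 also: potency for growth inhibition with lower SYBR green DNA signal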
[20] = P. falciparum 3D7-ScDHODH growth inhibitors, dose response, SYBR Green, dry powder samples (AID 1159570); format: functional, cell-based;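 also: parasite growth measured after 72 hours of compound exposure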
[21] = P. falciparum ATP4 D1247Y mutant growth inhibitors, dose response, NITD609-resistant line, SYBR Green, dry powder (AID 1159571); format: functional, cell-based;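 also: parasites synchronized at ring stage by sorbitol before testing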
[22] = Dose-response inhibition of insulin secretion in a rat insulinoma line at 5 mM glucose (AID 1117331); format: functional, cell-based; settings: INS-1E
[23] = molecular target: T4, DNA repair protein RAD52 homolog (Homo sapiens, UniProt P43351); format: functional, biochemical
T4 sequence (P43351 whole entry): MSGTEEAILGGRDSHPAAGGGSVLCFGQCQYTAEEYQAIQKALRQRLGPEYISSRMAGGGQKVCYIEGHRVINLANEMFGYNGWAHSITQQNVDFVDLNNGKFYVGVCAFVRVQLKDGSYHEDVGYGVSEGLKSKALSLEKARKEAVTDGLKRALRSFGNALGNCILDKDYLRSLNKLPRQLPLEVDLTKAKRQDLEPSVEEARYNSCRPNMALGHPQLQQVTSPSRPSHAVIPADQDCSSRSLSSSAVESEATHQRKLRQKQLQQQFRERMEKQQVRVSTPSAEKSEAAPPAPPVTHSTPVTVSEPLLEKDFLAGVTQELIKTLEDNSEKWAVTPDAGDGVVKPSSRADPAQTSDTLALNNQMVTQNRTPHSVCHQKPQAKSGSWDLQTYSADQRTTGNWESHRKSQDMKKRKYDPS

With `O=C(O)CN1C(=O)/C(=C\c2ccc(C(=O)O)cc2)SC1=S` the IC50 [1] was > 100 µM (inactive), the IC50 [2] was 24.5 µM (active) and the IC50 [3] was > 100 µM (not active). The IC50 [4] was 88.9 µM (active).

In the case of `O=C(O)CN1C(=O)/C(=C\c2cccc([N+](=O)[O-])c2)SC1=S`, the IC50 [1] is reported as > 100 µM (inactive), the IC50 [2] is reported as > 100 µM (inactive) and the IC50 [3] is reported as > 100 µM (not active). For the same compound, the IC50 [4] was > 100 µM (inactive).

In the case of `CC(=O)Oc1ccccc1/C=C/c1nc2ccccc2c(=O)o1`, the IC50 [5] is reported as 5.31 µM (active).

In the case of `COc1ccccc1N(CC(=O)NCC1CCCO1)C(=O)CCC(=O)Nc1nccs1` (stereo not given), the EC50 [6] is reported as > 79.4 µM (not active), the EC50 [7] is reported as > 79.4 µM (not active) and the EC50 [8] is reported as > 79.4 µM (not active).

In the case of `Cc1cc(C)c2c(n1)nn1c(N3CCN(c4ccccc4)CC3)cc(C)nc21`, the EC50 [9] is reported as > 20 µM (not active) and the EC50 [10] is reported as > 20 µM (not active).

With `COc1ccc(C(=O)CSc2nnc(-c3ccc(S(=O)(=O)N4CCOCC4)cc3)o2)cc1` the EC50 [6] was 53.5 µM (not active), the EC50 [7] was 40.5 µM (not active) and the EC50 [8] was 26.1 µM (not active).

In the case of `CCOC(=O)c1c(NC(=O)Cc2cccs2)sc(C(=O)NC2CCCC2)c1C`, the EC50 [6] is reported as > 79.4 µM (not active), the EC50 [7] is reported as > 79.4 µM (not active) and the EC50 [8] is reported as > 79.4 µM (not active).

With `CCOC(=O)N1CCN(S(=O)(=O)c2cc(Br)cc3c2N(C(C)=O)C(C)C3)CC1` (stereo not given) the EC50 [9] was > 20 µM (not active) and the EC50 [10] was > 20 µM (not active).

In the case of `Cc1ccc(-n2ncc3c(NCc4ccc5c(c4)OCO5)ncnc32)c(C)c1`, the EC50 [9] is reported as > 20 µM (not active), the EC50 [11] is reported as > 195 µM (not active) and the EC50 [10] is reported as > 20 µM (not active).

With `COc1ccc(/N=C/c2sc(O)c3ccccc23)cc1` the EC50 [12] was 0.228 µM (active), the EC50 [13] was 0.315 µM (active) and the EC50 (H4) was < 0.1 µM (active). The EC50 [14] was < 0.1 µM (active), the EC50 [15] was 0.433 µM (active) and the EC50 [16] was < 0.1 µM (active).

With `COc1ccc(/C=N/Nc2nnc(-c3ncc[nH]3)c3ccccc23)cc1` the EC50 [12] was 0.962 µM (active), the EC50 [13] was > 12 µM (not active) and the EC50 (H4) was 65.2 µM (active). The EC50 [14] was 1.93 µM (active), the EC50 [15] was 1.34 µM (active) and the EC50 [16] was < 0.1 µM (active).

With `C[C@@H]1CN([C@@H](C)CO)C(=O)c2cccc(NC(=O)c3cnccn3)c2O[C@@H]1CN(C)Cc1ccc(-c2ccccc2)cc1` the AC50 [17] was 0.378 µM (active), the AC50 [18] was 1.14 µM (active) and the AC50 [19] was 0.381 µM (active). The AC50 [20] was 0.0947 µM (active) and the AC50 [21] was 0.357 µM (active).

With `C[C@H]1CN([C@@H](C)CO)C(=O)c2cccc(NC(=O)NC3CCCCC3)c2O[C@H]1CN(C)Cc1ccc(C(F)(F)F)cc1` the AC50 [17] was 31.7 µM (active).

For `CCCCOc1cc(C(=O)OCCN(CC)CC)ccc1N` [BENOXINATE HYDROCHLORIDE], the IC50 [22] was 15.5 µM (inactive) and the AC50 [23] was 33.9 µM (active).
